In ChEMBL document CHEMBL3272243, “Synthesis and biological activity of camel and bovine beta-melanotropins” (1976):

Assays:
Format in all cases: functional, Anura
Design in all cases: scale not given: the % may be the effect or the level left
Zone of skin [1] = experiment: Melanocyte stimulating activity in frog skin assessed as decrease in reflectance at 5.4 ng relative to control
Zone of skin [2] = experiment: Melanocyte stimulating activity in frog skin assessed as decrease in reflectance at 1.8 ng relative to control
Zone of skin [3] = experiment: Melanocyte stimulating activity in frog skin assessed as decrease in reflectance at 2.7 ng relative to control
Zone of skin [4] = experiment: Melanocyte stimulating activity in frog skin assessed as decrease in reflectance at 2.7 to 8.1 ng relative to camel betaC2-MSH
Zone of skin [5] = experiment: Melanocyte stimulating activity in frog skin assessed as decrease in reflectance at 8.1 ng relative to control
Zone of skin [6] = experiment: Melanocyte stimulating activity in frog skin assessed as decrease in reflectance at 6.9 ng relative to control
Zone of skin [7] = experiment: Melanocyte stimulating activity in frog skin assessed as decrease in reflectance at 2.3 ng relative to control
Zone of skin [8] = experiment: Melanocyte stimulating activity in frog skin assessed as decrease in reflectance at 2.7 to 8.1 ng relative to bovine beta-MSH

Substance: H-DGGPYKMEHFRWGSPPKD-OH
- Activity (Zone of skin [1]): 53%
- Activity (Zone of skin [2]): 28.4%
- Activity (Zone of skin [3]): 36.4%
- Activity (Zone of skin [4]): 87.8%
- Activity (Zone of skin [5]): 56.5%

Substance: H-DSGPYKMEHFRWGSPPKD-OH
- Activity (Zone of skin [3]): 30.1%
- Activity (Zone of skin [6]): 44.6%
- Activity (Zone of skin [7]): 29.1%
- Activity (Zone of skin [4]): 105.6%
- Activity (Zone of skin [8]): 120.2%
- Activity (Zone of skin [5]): 49.6%
